Laboratory results: patent US20230310441A1, “TREATMENT FOR SCHIZOPHRENIA” (TAKEDA PHARMACEUTICAL COMPANY, priority 2020, published 2023)
Entries after “also recorded” stand apart in the source; their conditions may differ. Where two headings read alike, the source gives them in different places.

Experiment: Phase 1 FIH study: plasma pharmacokinetics in healthy participants
Assay type: in vivo, human
Conditions: for Tmax / Cmax / AUC(0-t) / AUC / Vd/F: human, plasma; for Vd/F: read-out: Vz/F (mean)
Procedure: Part 1 was a double-blind, SRD study in healthy adults, utilizing an alternate panel design (cohorts 1, 2) and sequential panel design (cohorts 3-5). Cohorts 1 and 2 were part of a two-period, alternating-panel, double-blind study of Compound (I) administered as an oral suspension (5 mg, 10 mg, 20 mg, or 40 mg) or matched placebo, with a washout period of at least 7 days between treatment periods. Cohorts 3-5 were part of a sequential-panel, double-blind study to evaluate the SRDs of Compound (I) (80, 120, or 160 mg, respectively) or matched placebo. Although planned, all subsequent doses after the dose of 80 mg were determined based on emerging safety, tolerability, and PK data from the preceding cohorts.
In Part 2, participants received either placebo on all dosing days or a loading dose of Compound (I) on Day 1 and a maintenance dose of half the initial dose on Days 8, 15 and 22, administered as an oral suspension. Baseline measurements were obtained on Day −2, and study-specific measurements were obtained following oral dose administrations on Days 1, 8, 15, and 22.
Part 3 was a randomized, open-label, single-dose, parallel design study to evaluate the bioavailability of a Compound (I) tablet formulation relative to a Compound (I) oral suspension formulation and the effect of food on the PK in healthy participants. The immediate release tablet contained mannitol, microcrystalline cellulose, and other commonly used excipients. Participants were randomized 1:1 to receive a single 40 mg dose of Compound (I) as a tablet after either 10 h overnight fast, or 30 min after beginning ingestion of a high-fat, high-calorie breakfast.
Participants were required to remain in the study unit for an additional 48 h post-dose for safety and PK assessments with follow-up visits on Day 4-5 and on Day 17-21. Blood samples were collected over 96 h post-dose to measure the plasma concentrations of Compound (I).
Plasma and urine concentrations of Compound (I) and urine concentrations of cortisol and 6β-hydroxycortisol were measured by high performance liquid chromatography with tandem mass spectrometry. One 4 mL blood sample was collected per scheduled assessment. For participants receiving placebo, blood samples were analyzed only at pre-dose and around the time Cmax occurred (as emerging from the measurements of the first dose group) to ensure that no additional participants could have been on active treatment. Serial urine samples were collected for Part 1 cohorts 1-5 and Part 2 cohorts 1-4. Urine samples for participants receiving placebo were not analyzed. Urine samples were collected for the determination of cortisol and 6β-hydroxycortisol for Part 2 cohorts 1-4 and for all patients in Part 4. Samples for participants randomized to placebo were analyzed for these parameters.
Pharmacokinetic parameters were determined from the concentration-time profiles for all evaluable participants. Actual sampling times were used in all computations. pharmacokinetic parameters were calculated using non-compartmental analysis using Phoenix WinNonLin v8.0 or SAS v 9.4.

[1] = Part 3, single oral 40 mg tablet
[2] = healthy, oral, 40/20 mg, Day 22, N 6
[3] = healthy, oral, 80/40 mg, Day 22, N 6
[4] = healthy, oral, 120/60 mg, Day 22, N 6
[5] = healthy, oral, 160/80 mg, Day 22, N 6
[6] = po, healthy, oral, 40/20 mg, Day 22, N 6
[7] = po, healthy, oral, 80/40 mg, Day 22, N 6
[8] = po, healthy, oral, 120/60 mg, Day 22, N 6
[9] = po, healthy, oral, 160/80 mg, Day 22, N 6

C[C@H](NC(=O)Cn1nnc2ccccc2c1=O)c1ccc(OC(F)(F)F)cc1 [Compound (I), (S)-2-(4-oxobenzo[d][1,2,3]triazin-3(4H)-yl)-N-(1-(4-(trifluoromethoxy)phenyl)ethyl)acetamide]
mean t1/2z (Part 1 SRD, 20-160 mg dose range): 210 to 296 h
mean t1/2z at steady state (Part 2 MRD): 170 to 302 h
dose proportionality of systemic exposure at steady state (Part 2 MRD, Day 22): increased approximately dose proportionally
ratio for AUC96, tablet under fasted and fed conditions [1]: ~0.942
ratio for Cmax, tablet under fasted and fed conditions [1]: approximately 0.841
food effect on systemic exposure (Part 3, tablet, fasted vs high-fat, high-calorie meal): no meaningful food effect on systemic exposure; also recorded: minimal food effect
steady-state mean t1/2z (healthy participants (comparison for Part 4)): 271 h
CL/F (mean) [2]: 334.6 mL/h
Cav,ss (mean) [2]: 393.8 ng/mL
Ctrough (mean) [2]: 274.2 ng/mL
t1/2z (mean) [2]: 299.5 h
CL/F (mean) [3]: 281.9 mL/h
Cav,ss (mean) [3]: 889.3 ng/mL
Ctrough (mean) [3]: 621.3 ng/mL
t1/2z (mean) [3]: 301.7 h
CL/F (mean) [4]: 299.1 mL/h
Cav,ss (mean) [4]: 1206.6 ng/mL
Ctrough (mean) [4]: 862.5 ng/mL
t1/2z (mean) [4]: 169.7 h
CL/F (mean) [5]: 284.6 mL/h
Cav,ss (mean) [5]: 1751.1 ng/mL
Ctrough (mean) [5]: 1209.0 ng/mL
t1/2z (mean) [5]: 270.8 h
saturation of plasma PK (highest dose level tested): Saturation of plasma PK was observed at 160 mg
Tmax (oral, 40 mg, Part 3, tablet formulation, fasted and fed states, read-out: median tmax): 2 h
Tmax (oral, 120 mg, Part 1 SRD, 120 mg (secondary peak in some participants), read-out: median tmax): 13 h
Tmax (oral, 160 mg, Part 1 SRD, 160 mg (secondary peak in some participants), read-out: median tmax): 13.5 h
Tmax (oral, Part 1 SRD, dose range 5-80 mg, read-out: median tmax): 0.99 to 3 h
Cmax (oral, Part 2 MRD, 40/20 mg, up to 168 h post-dose, read-out: Mean Cmax (SD)): 550 ng/mL
Cmax (oral, Part 2 MRD, 80/40 mg, up to 168 h post-dose, read-out: Mean Cmax (SD)): 880 ng/mL
Cmax (oral, Part 2 MRD, 120/60 mg, up to 168 h post-dose, read-out: Mean Cmax (SD)): 1260 ng/mL
Cmax (oral, Part 2 MRD, 160/80 mg, up to 168 h post-dose, read-out: Mean Cmax (SD)): 1760 ng/mL
Tmax (oral, Part 2 MRD, read-out: median tmax): 1.75 to 3 h
Tmax (oral, healthy participants (comparison for Part 4), read-out: median tmax): 3 h
Cmax (po, 5 mg, Part 1 SRD, Cohort 1, 5 mg oral suspension, fasted, up to 96 h post-dose, read-out: Mean Cmax (SD)): 140 ng/mL
Cmax (po, 10 mg, Part 1 SRD, Cohort 2, 10 mg oral suspension, fasted, up to 96 h post-dose, read-out: Mean Cmax (SD)): 193 ng/mL
Cmax (po, 80 mg, Part 1 SRD, Cohort 3, 80 mg oral suspension, fasted, up to 168 h post-dose, read-out: Mean Cmax (SD)): 910 ng/mL
Cmax (po, 120 mg, Part 1 SRD, Cohort 4, 120 mg oral suspension, fasted, up to 168 h post-dose, read-out: Mean Cmax (SD)): 1200 ng/mL
Cmax (po, 160 mg, Part 1 SRD, Cohort 5, 160 mg oral suspension, fasted, up to 168 h post-dose, read-out: Mean Cmax (SD)): 1120 ng/mL
AUC(0-t) [6]: 191 µg·h/mL
AUC (po, healthy, oral, 40/20 mg, Day 22, N 6, read-out: AUC24 (mean)): 12 µg·h/mL
AUC (po, healthy, oral, 40/20 mg, Day 22, N 6, read-out: AUC96 (mean)): 42.2 µg·h/mL
AUC (po, healthy, oral, 40/20 mg, Day 22, N 6, read-out: AUCτ (mean)): 66.2 µg·h/mL
Cmax (po, healthy, oral, 40/20 mg, Day 22, N 6, read-out: Cmax (mean)): 698 ng/mL
Vd/F [6]: 112 L
Tmax (po, healthy, oral, 40/20 mg, Day 22, N 6, read-out: tmax (median)): 1.75 h
AUC(0-t) [7]: 421 µg·h/mL
AUC (po, healthy, oral, 80/40 mg, Day 22, N 6, read-out: AUC24 (mean)): 24.4 µg·h/mL
AUC (po, healthy, oral, 80/40 mg, Day 22, N 6, read-out: AUC96 (mean)): 92.7 µg·h/mL
AUC (po, healthy, oral, 80/40 mg, Day 22, N 6, read-out: AUCτ (mean)): 149 µg·h/mL
Cmax (po, healthy, oral, 80/40 mg, Day 22, N 6, read-out: Cmax (mean)): 1250 ng/mL
Vd/F [7]: 123 L
Tmax (po, healthy, oral, 80/40 mg, Day 22, N 6, read-out: tmax (median)): 2 h
AUC(0-t) [8]: 407 µg·h/mL
AUC (po, healthy, oral, 120/60 mg, Day 22, N 6, read-out: AUC24 (mean)): 35.9 µg·h/mL
AUC (po, healthy, oral, 120/60 mg, Day 22, N 6, read-out: AUC96 (mean)): 134 µg·h/mL
AUC (po, healthy, oral, 120/60 mg, Day 22, N 6, read-out: AUCτ (mean)): 203 µg·h/mL
Cmax (po, healthy, oral, 120/60 mg, Day 22, N 6, read-out: Cmax (mean)): 1740 ng/mL
Vd/F [8]: 73 L
Tmax (po, healthy, oral, 120/60 mg, Day 22, N 6, read-out: tmax (median)): 3 h
AUC(0-t) [9]: 841 µg·h/mL
AUC (po, healthy, oral, 160/80 mg, Day 22, N 6, read-out: AUC24 (mean)): 47.4 µg·h/mL
AUC (po, healthy, oral, 160/80 mg, Day 22, N 6, read-out: AUC96 (mean)): 181 µg·h/mL
AUC (po, healthy, oral, 160/80 mg, Day 22, N 6, read-out: AUCτ (mean)): 294 µg·h/mL
Cmax (po, healthy, oral, 160/80 mg, Day 22, N 6, read-out: Cmax (mean)): 2410 ng/mL
Vd/F [9]: 103 L
Tmax (po, healthy, oral, 160/80 mg, Day 22, N 6, read-out: tmax (median)): 3 h
Tmax (po, oral suspension (comparison for Part 3), read-out: median tmax): 1.82 h
Tmax (po, single and repeated oral administration, healthy and schizophrenia patients, read-out: tmax): 0.99 to 3 h
absorption (single and repeated oral administration, healthy volunteers and patients with stable schizophrenia): rapidly absorbed
dose proportionality of Cmax and AUC (single oral doses 5-160 mg, healthy): increased less than dose proportionally
